In one test the target is T1, MATE1 (Homo sapiens, UniProt Q96FL8).
T1 sequence (Q96FL8 1-570): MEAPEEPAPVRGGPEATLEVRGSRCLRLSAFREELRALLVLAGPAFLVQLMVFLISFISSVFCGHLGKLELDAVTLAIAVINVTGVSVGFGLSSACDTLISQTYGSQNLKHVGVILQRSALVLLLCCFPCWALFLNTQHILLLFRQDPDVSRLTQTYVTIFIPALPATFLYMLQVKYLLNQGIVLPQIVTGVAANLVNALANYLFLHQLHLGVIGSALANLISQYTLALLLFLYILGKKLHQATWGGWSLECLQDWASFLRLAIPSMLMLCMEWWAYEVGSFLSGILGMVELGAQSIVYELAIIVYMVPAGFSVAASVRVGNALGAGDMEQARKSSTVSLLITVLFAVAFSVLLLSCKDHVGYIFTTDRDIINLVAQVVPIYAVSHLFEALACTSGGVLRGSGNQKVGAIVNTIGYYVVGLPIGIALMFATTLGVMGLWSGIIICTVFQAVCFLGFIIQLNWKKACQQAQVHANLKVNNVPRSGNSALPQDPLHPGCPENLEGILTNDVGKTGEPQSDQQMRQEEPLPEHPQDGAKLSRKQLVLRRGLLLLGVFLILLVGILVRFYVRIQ
Kind of test: Uptake ratio in MATE1-overexpressing HEK293 cells vs empty vector (2.5 μM, 1 min, HPLC-MS/MS). The test is classed as cell-based.

The target of the next test is MATE2K (Homo sapiens, UniProt Q86VL8). As to the kind of experiment: Uptake ratio in MATE2K-overexpressing HEK293 cells vs empty vector (2.5 μM, 1 min, HPLC-MS/MS). In kind it is cell-based.
MATE2K, sequence (Q86VL8 1-566 isoform Q86VL8-3): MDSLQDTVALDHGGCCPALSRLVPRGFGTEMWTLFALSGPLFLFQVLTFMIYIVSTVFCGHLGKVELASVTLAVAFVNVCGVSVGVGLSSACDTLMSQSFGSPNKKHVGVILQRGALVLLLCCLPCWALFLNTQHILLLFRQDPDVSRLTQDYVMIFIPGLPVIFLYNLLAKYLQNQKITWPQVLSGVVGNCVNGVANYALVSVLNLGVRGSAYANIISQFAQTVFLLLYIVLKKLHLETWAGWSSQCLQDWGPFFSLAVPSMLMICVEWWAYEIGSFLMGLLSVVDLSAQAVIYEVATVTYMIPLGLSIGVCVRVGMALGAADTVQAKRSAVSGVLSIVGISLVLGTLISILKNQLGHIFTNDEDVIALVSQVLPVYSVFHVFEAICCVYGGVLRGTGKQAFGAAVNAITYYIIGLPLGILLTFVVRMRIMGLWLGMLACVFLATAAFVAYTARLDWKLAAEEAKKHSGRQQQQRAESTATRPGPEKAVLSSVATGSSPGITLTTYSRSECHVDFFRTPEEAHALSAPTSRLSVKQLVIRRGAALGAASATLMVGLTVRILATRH
The mark [1] stands for this setting: fold uptake over empty vector, 2.5 μM, 1 min.
[2] abbreviates: uptake ratio MATE1-overexpressing vs empty-vector HEK293 cells, 2.5 μM, 1 min, mean.
The mark [3] stands for this setting: uptake ratio MATE2K-overexpressing vs empty-vector HEK293 cells, 2.5 μM, 1 min, mean.
[4] abbreviates: mean ratio of uptake in MATE1-overexpressing HEK293 cells vs empty vector, 2.5 μM, 1 min.
The mark [5] stands for this setting: mean ratio of uptake in MATE2K-overexpressing HEK293 cells vs empty vector, 2.5 μM, 1 min.

Each structure is given as a SMILES string. Where two headings read alike, the source gives them in different places.

In the case of `CNCCc1ccc(O)c(O)c1` [Deoxyepinephrine], the MATE1 ratio at MATE1 (setting [1]) was found to be 34.31. Also, on MATE2K (setting [1]), the MATE2K ratio was 3.40.

Consider `CN(C)C(N)=NCCC[C@H](N)C(=O)O` [NN-Dimethylarginine], for which, on MATE1 (setting [1]), the MATE1 ratio is on record as 0.97. The MATE2K ratio at MATE2K (setting [1]) was 0.93.

For the compound `NCCNCCNCCN` [Triethylentetramine], on MATE1 (setting [2]), the MATE1 is 0.65.

Consider `C[N+]1(C)CCC[C@H]1C(=O)[O-]` [Stachydrine], for which the MATE1 ratio on MATE1 (setting [1]) worked out at 0.83. The MATE1 on MATE1 (setting [2]) came out at 0.83. Also, the MATE2K ratio at MATE2K (setting [1]) worked out at 1.31. The MATE2 at MATE2K (setting [3]) is listed as 1.31.

Turning to `CN(C)CCC=C1c2ccccc2COc2ccccc21` [Doxepin (Z), Doxepin], at MATE1 (setting [1]), the MATE1 ratio was 1.28. Besides, the MATE2K ratio at MATE2K (setting [1]) stood at 1.09.

As for `COC(=O)[C@@H]1[C@H]2CC[C@@H](C[C@@H]1O)N2C` [Methylecgonine], the MATE1 ratio at MATE1 is reported as 1.54. Moreover, on MATE2K, the MATE2K ratio stood at 1.36.

Regarding `C=C[C@H]1CN2CC[C@H]1C[C@H]2[C@H](O)c1ccnc2ccccc12` [Cinchonidine], on MATE1, the “MATE1 (uptake ratio)” value was 1.16 and the MATE1 ratio is on record as 1.16. Also, at MATE2K, the “MATE2 (uptake ratio)” value was 1.14 and the MATE2K ratio is reported as 1.14.

As for `NCCc1ccccc1` [2-Phenylethylamine], the MATE1 ratio at MATE1 (setting [1]) is listed as 1.39. Moreover, on MATE1 (setting [4]), the “MATE1 (uptake ratio)” value came out at 1.39. Also, the MATE2K ratio on MATE2K (setting [1]) turned out to be 1.43. On MATE2K (setting [5]), the “MATE2 (uptake ratio)” value came out at 1.43.

Take `C[C@H](NCCc1ccc(O)cc1)[C@H](O)c1ccc(O)cc1` (racemic) [Ritodrine]: the MATE1 ratio at MATE1 (setting [1]) is reported as 8.03. Moreover, at MATE1 (setting [2]), the MATE1 stood at 8.03. Also, on MATE2K (setting [1]), the MATE2K ratio turned out to be 2.23. For the same compound, the MATE2 at MATE2K (setting [3]) was 2.23.

For the compound `CNC[C@H](O)c1ccc(O)c(O)c1` (racemic) [Epinephrine (rac), Epinephrine], at MATE1 (setting [1]), the MATE1 ratio is reported as 18.70. Further, on MATE2K (setting [1]), the MATE2K ratio is listed as 3.27.

For `CC(C)[N+](C)(CCOC(=O)C1c2ccccc2Oc2ccccc21)C(C)C` [Propantheline], the MATE1 ratio at MATE1 (setting [1]) is given as 10.16. The MATE1 on MATE1 (setting [2]) stood at 10.16. The MATE2K ratio on MATE2K (setting [1]) came out at 5.77. Further, the MATE2 at MATE2K (setting [3]) came to 5.77.

Regarding `C[C@](N)(Cc1ccc(O)c(O)c1)C(=O)O` [Methyldopa], the MATE1 ratio at MATE1 (setting [1]) worked out at 1.04. The MATE2K ratio on MATE2K (setting [1]) amounted to 1.15.

For the compound `Nc1nc(=O)c2nc(CNc3ccc(C(=O)N[C@@H](CCC(=O)O)C(=O)O)cc3)cnc2[nH]1` [Folic acid], on MATE1 (setting [1]), the MATE1 ratio is listed as 1.00. For the same compound, on MATE2K (setting [1]), the MATE2K ratio is 1.13.

`CNC(=C[N+](=O)[O-])NCCSCc1csc(CN(C)C)n1` [Nizatidine]: at MATE1 (setting [1]), the MATE1 ratio came out at 11.88. The MATE2K ratio at MATE2K (setting [1]) was determined as 10.42.

Regarding `NCCCCN=C(N)N` [Agmatine], the “MATE1 ratio in this study” value on MATE1 (Table S1, 2.5 μM, 1 min) is on record as 1.08. In addition, the MATE1 ratio at MATE1 (setting [1]) is given as 1.08. For the same compound, the “MATE1 (uptake ratio)” value on MATE1 (setting [4]) was 1.08. For the same compound, the “MATE2K ratio in this study” value at MATE2K (Table S1, 2.5 μM, 1 min) is 1.05. Also, at MATE2K (setting [1]), the MATE2K ratio stood at 1.05. Further, on MATE2K (setting [5]), the “MATE2 (uptake ratio)” value came out at 1.05.

Regarding `Nc1cccc2c1CN(C1CCC(=O)NC1=O)C2=O` (stereo not drawn) [Lenalidomide], at MATE1 (setting [1]), the MATE1 ratio stood at 1.78. The MATE2K ratio at MATE2K (setting [1]) is 1.53.

Turning to `CCCCCC(=O)OC(CC(=O)[O-])C[N+](C)(C)C` (stereo not drawn) [Hexanoylcarnitine], the MATE1 ratio at MATE1 (setting [1]) stood at 1.02. The MATE2K ratio at MATE2K (setting [1]) is recorded as 1.01.

With `CNCCc1c[nH]c2ccc(O)cc12` [N-Methylserotonin], the MATE1 ratio at MATE1 is recorded as 26.34. In addition, on MATE2K, the MATE2K ratio is 8.85.

For the compound `CCN1CCC[C@H]1CNC(=O)c1c(OC)ccc(Br)c1OC` [Remoxipride], the MATE1 ratio at MATE1 (setting [1]) was determined as 1.19. The MATE1 on MATE1 (setting [2]) amounted to 1.19. Besides, on MATE2K (setting [1]), the MATE2K ratio was found to be 1.21. The MATE2 at MATE2K (setting [3]) worked out at 1.21.

Turning to `CCN(CC)CCNC(=O)c1ccc(NS(C)(=O)=O)cc1` [Sematilide], the MATE1 ratio on MATE1 (setting [1]) is recorded as 19.10. In addition, at MATE1 (setting [2]), the MATE1 was determined as 19.1. Also, the MATE2K ratio on MATE2K (setting [1]) was 6.42. Moreover, on MATE2K (setting [3]), the MATE2 worked out at 6.42.

Regarding `Nc1ccn([C@@H]2O[C@H](CO)[C@@H](O)C2(F)F)c(=O)n1` [Gemcitabine], on MATE1 (Table S1, 2.5 μM, 1 min), the “MATE1 ratio in this study” value is on record as 1.29. In addition, the MATE1 ratio at MATE1 (setting [1]) is on record as 1.29. In addition, the “MATE2K ratio in this study” value at MATE2K (Table S1, 2.5 μM, 1 min) was determined as 1.08. In addition, on MATE2K (setting [1]), the MATE2K ratio is recorded as 1.08.

For `Cc1cc(C(C)(C)C)cc(C)c1CC1=NCCN1` [Xylometazoline], on MATE1, the MATE1 came out at 1.55.

On to `CCCC[N+]1(C)[C@@H]2C[C@@H](OC(=O)[C@H](CO)c3ccccc3)C[C@H]1[C@@H]1O[C@@H]12` (stereo partly drawn) [Butylscopolamine], for which, on MATE1, the “MATE1 (uptake ratio)” value is 23.84, the MATE1 ratio stood at 23.84 and the “MATE1 ratio in this study” value is 23.84. Further, on MATE2K, the “MATE2 (uptake ratio)” value was 1.7, the MATE2K ratio was determined as 1.70 and the “MATE2K ratio in this study” value is 1.70.

Take `CNCc1ccc(-c2[nH]c3cc(F)cc4c3c2CCNC4=O)cc1` [Rucaparib]: the MATE1 ratio on MATE1 (setting [1]) amounted to 3.71. Besides, the MATE1 on MATE1 (setting [2]) is reported as 3.71. In addition, the MATE2K ratio on MATE2K (setting [1]) is given as 2.03. Also, at MATE2K (setting [3]), the MATE2 turned out to be 2.03.

For the compound `CC(C)NCC(O)COc1ccc(CCOCC2CC2)cc1` (stereo not drawn) [Betaxolol], the MATE1 ratio on MATE1 (setting [1]) amounted to 1.37. Further, the “MATE1 (uptake ratio)” value at MATE1 (setting [4]) came out at 1.37. Besides, the MATE2K ratio at MATE2K (setting [1]) came to 1.43. Moreover, the “MATE2 (uptake ratio)” value on MATE2K (setting [5]) stood at 1.43.

On to `CCC(C)C(=O)OC(CC(=O)[O-])C[N+](C)(C)C` (stereo not drawn) [2-Methylbutyrylcarnitine], for which the MATE1 ratio at MATE1 (setting [1]) is on record as 0.61. Further, the “MATE1 (uptake ratio)” value on MATE1 (setting [4]) is reported as 0.61. Further, the MATE2K ratio at MATE2K (setting [1]) turned out to be 1.24. In addition, the “MATE2 (uptake ratio)” value at MATE2K (setting [5]) amounted to 1.24.

In the case of `NC(N)=NCc1cccc(I)c1` [m-Iodobenzylguanidin], the MATE1 ratio on MATE1 (setting [1]) is on record as 3.53. Besides, the MATE2K ratio on MATE2K (setting [1]) was determined as 2.28.

With `CC(C)C[C@H](N)C(=O)O` [Leucine], the MATE1 ratio at MATE1 (setting [1]) worked out at 1.18. On MATE2K (setting [1]), the MATE2K ratio was 1.06.

`COC(=O)[C@H]1[C@H]2C[C@@H]3c4[nH]c5cc(OC)ccc5c4CCN3C[C@H]2C[C@@H](OC(=O)c2cc(OC)c(OC)c(OC)c2)[C@@H]1OC` [Reserpine]: the MATE1 ratio at MATE1 (setting [1]) came out at 1.61. The MATE1 on MATE1 (setting [2]) is reported as 1.61. For the same compound, at MATE2K (setting [1]), the MATE2K ratio came to 1.08. The MATE2 on MATE2K (setting [3]) came out at 1.08.

Take `C#CCN(C)[C@H](C)Cc1ccccc1` [Selegiline (S), Selegiline]: the MATE2 at MATE2K came to 1.08.

With `NCCc1c[nH]c2ccccc12` [Tryptamine], the MATE1 on MATE1 is 2.21.

`CCN1CCC[C@H]1CNC(=O)c1cc(S(N)(=O)=O)ccc1OC` [Sulpiride (S)]: the MATE2 at MATE2K is recorded as 18.54.

With `CCOc1ccccc1OCCN[C@H](C)Cc1ccc(OC)c(S(N)(=O)=O)c1` [Tamsulosin], the MATE1 on MATE1 (setting [2]) is 1.4.

On to `NC(=O)[C@@H]1CCCN1C(=O)[C@H](Cc1cnc[nH]1)NC(=O)[C@@H]1CCC(=O)N1` [Thyrotropin-Releasing-Hormon], for which, on MATE1 (setting [2]), the MATE1 turned out to be 1.71.

Take `Cc1ccc(O)c([C@H](CCN(C(C)C)C(C)C)c2ccccc2)c1` [Tolterodine (R)]: at MATE2K, the MATE2 is reported as 1.06.

`NCCS(=O)(=O)O` [Taurine]: on MATE2K (setting [3]), the MATE2 was found to be 1.2.

On to `Cc1ccc(O)c(C(CCN(C(C)C)C(C)C)c2ccccc2)c1` (stereo in doubt) [Tolterodine (S)], for which the MATE1 at MATE1 is reported as 1.16.

(Values after article PMC12207590, “Substrate Specificity of the Organic Cation Transporters MATE1 and MATE2K and Functional Overlap with OCT1 and OCT2” (Journal of Medicinal Chemistry, 2025).)
